# Measurements from patent publication US8592359B2 (priority 2010, dated 2013).
# Tested on: amylase Stainzyme® 12,0 1
# Assay: Residual amylolytic activity after storage in a liquid washing agent (starch / dinitrosalicylic acid)
# Assay type: biochemical
# Details: 1 wt % stabilizer, 4 weeks at 30° C., initial activity 100%
# Excerpt: A liquid washing agent of the following composition serves as a baseline washing agent formulation (all indications in percent by weight): 0.3 to 0.5% xanthan, 0.2 to 0.4% antifoaming agent, 6 to 7% glycerol, 0.3 to 0.5% ethanol, 4 to 7% FAEOS (fatty alcohol ether sulfate), 24 to 28% nonionic surfactants, 1 to 2% sodium citrate (dihydrate), 2 to 4% soda, 14 to 16% coconut fatty acids, 0.5% HEDP (1-hydroxyethane-(1,1-diphosphonic acid)), 0 to 0.4% PVP (polyvinylpyrrolidone), 0 to 0.05% optical brightener, 0 to 0.001% dye, remainder demineralized water.
# The monosaccharide glycerate glucosyl glycerate was incorporated, as the component stabilizing the hydrolytic enzyme, into the baseline washing agent formulation according to Example 2 (see Table 2, indications in this regard in wt %). […] The amylase used was the Stainzyme® 12,0 1 product of the company Novozymes A/S. The amylase was used in the washing agent either alone or in combination with the protease of Example 2 (utilization quantity: 1.0 wt % amylase and/or 1.0 wt % protease, respectively active substance).
# After storage, the respective residual amylolytic activity was determined by incubating the samples under defined reaction conditions (tris-maleate buffer, pH 6.5, 50° C., 15 min) with 0.67% starch (FLUKA no. 85642, from potatoes, soluble, pretreated per Zulkowsky (treated with glycerol at 190° C.)). […]
smiles,measurement,setting,value
OB(O)O [boric acid],residual amylolytic activity after storage,with protease (1.0 wt %),92%
same,residual amylolytic activity after storage,without protease,97%
